# Data taken from patent publication US20260327216A1, “SUBSTITUTED OXAZOLONE COMPOUND FOR DECREASING LEVELS OF IKZF I-4 PROTEINS” (BRISTOL-MYERS SQUIBB COMPANY, priority 2023, published 2026).
# Tests used:
# IKZF1 Ikaros [1] = molecular target: T1, IKZF1 Ikaros (Homo sapiens, UniProt Q13422+Q96SW2); assay: Human Regulatory T Cell Degradation Assay, IKZF1; format: cell-based; parameters: Cryopreserved healthy donor human peripheral blood mononuclear cells (PBMC); endogenous in cells; host or cells: human PBMC from healthy donors (CD8+ T cells by flow cytometry); conditions: human regulatory T cells, 20 hours; for Dmax: Regulatory T cell, 100% = complete degradation, read-out: IKZF1 Ikaros max % deg. observed; for DC50: concentration reducing protein level by 50% vs DMSO
# Experimental: Cryopreserved human regulatory T cells were thawed in RPMI+10% FBS+20 ng/mL IL-2. After being spun at 1200 rpm for 5 mins, the cells were resuspended in RPMI+10% FBS+20 ng/mL and rested at 37° C. with 5% CO2 for 3 hours. The cells were then plated at 40,000 cells/well in 40 μL RPMI+10% FBS+20 ng/ml human IL-2 in a 384 well cell culture plate prior to using acoustic dispensing technology (ECHO 555) for adding compounds of interest. Cell cultures were incubated for 20 hours at 37° C. and 5% CO2. In order to facilitate analysis, cell cultures were spun down at 1200 rpm for 5 minutes and the supernatant was discarded using an EL406 plate washer. After washing three times with 70 μL PBS, cell pellets were resuspended in 50 μL of near IR viability staining solution (Life Technologies, Cat #L34975) and incubated for 30 minutes on ice protected from light. Cells were washed three times with 70 μL PBS+0.5% BSA using an EL406 plate washer. After shaking the plate to dislodge the cell pellet, cells were resuspended in 50 μL of Fixation Buffer (eBioScience FoxP3 buffer set 00-5523-00) for 60 minutes at room temperature. After centrifuging and discarding the supernatant, cells were permeabilized with 50 μL of permeabilization buffer (eBioScience FoxP3 buffer set 00-5523-00) for 10 minutes at room temperature. Following permeabilization, cells were spun down and the supernatant was replaced with 30 μL fluorescently labelled antibodies against the intracellular targets Helios (Helios-APC [BioLegend, Cat #137222, 1:50])]), Aiolos, and Ikaros 1× Permeabilization buffer and staining reactions were incubated for 1 bour at room temperature; protected from light. Subsequently, 30 μL of 1× Permeabilization buffer was added prior to centrifuging the cells and discarding the supernatant. Stained cells were resuspended in 30 μL of flow cytometry staining buffer (PBS+0.5% BSA) and analyzed using an Intellicyt Ique Plus flow cytometer.
# (§1) Table B-1 lists the maximum observed degradation of the IKZF1 protein and IKZF2 protein as measured in the Human Regulatory T Cell Degradation assay. The results in Table B-1 were rounded to two digits. In the Human Regulatory T Cell Degradation assay, a value of 100% indicated no detectable protein remaining or complete degradation of the protein; and a value of 0% indicated no detectable degradation of the protein by the test compound.
# IKZF1 Ikaros [2] = molecular target: T1, IKZF1 Ikaros; assay: Human CD8^+ T Cell Reprogramming Assay, IKZF1; format: cell-based; parameters: Cryopreserved healthy donor human peripheral blood mononuclear cells (PBMC); endogenous in cells; host or cells: human PBMC from healthy donors (CD8+ T cells by flow cytometry); conditions: human PBMC, CD8+ T cells; for Dmax: human, 24 h, read-out: IKZF1 Ikaros Maximum Observed Degradation
# Experimental: Cryopreserved healthy donor human peripheral blood mononuclear cells (PBMC) from healthy donors were thawed and seeded at 500,000 cells/well of 96-well round bottom plates in RPMI 1640 media (Gibco) supplemented with 10% FBS, Pen/Strep (Gibco), MEM-NEAA (Gibco), and sodium pyruvate (Gibco). Cells were treated with titrated doses of compound for 24 hours at 37° C., 5% CO2 before analyzing by flow cytometry.
# For flow cytometry staining, cells were washed twice with flow cytometry staining buffer (Thermo Fisher) and incubated in Human Tru-stain Fc block (Biolegend) for 10 minutes before adding eFluor780 viability dye (Thermo Fisher) and surface marker antibody cocktail containing LD-eFluor780, CD3-BUV-395, CD4-BUV805, CD8-FITC, and CD25-BV605 for 30 minutes at 4° C. Cells were then fixed and permeabilized by incubation with permeabilization buffer (eBioscience FoxP3 buffer set 00-5523-00) for 30 minutes at 4° C. as per the kit manufacturer's instructions. Cells were washed twice with the Perm/Wash buffer supplied in the kit as per the manufacturer's instructions and incubated overnight at 4° C. with an intracellular antibody cocktail comprised of antibodies specific for the transcription factors (i.e., Foxp3-BV421, HELIOS-PE-Cy7, EOS-PE, IKAROS-PECF594, AIOLOS-AF647). Cells were washed twice with Perm/Wash buffer and resuspended in flow cytometry staining buffer (Thermo Fisher) prior to acquisition. Sample acquisition and analysis was performed using a BD LSRFortessa (BD Biosciences) flow cytometer. Single-stain controls for each fluorochrome were prepared using UltraComp eBead Compensation Beads (Thermo Fisher). Data were analyzed using FlowJo version 10 and GraphPad Prism Software.
# as §1, with “D-1” for “B-1”, “IKZF3” for “IKZF2”, “CD8^+” for “Regulatory”, “Reprogramming” for “Degradation”
# T1 sequence (Q13422 whole entry): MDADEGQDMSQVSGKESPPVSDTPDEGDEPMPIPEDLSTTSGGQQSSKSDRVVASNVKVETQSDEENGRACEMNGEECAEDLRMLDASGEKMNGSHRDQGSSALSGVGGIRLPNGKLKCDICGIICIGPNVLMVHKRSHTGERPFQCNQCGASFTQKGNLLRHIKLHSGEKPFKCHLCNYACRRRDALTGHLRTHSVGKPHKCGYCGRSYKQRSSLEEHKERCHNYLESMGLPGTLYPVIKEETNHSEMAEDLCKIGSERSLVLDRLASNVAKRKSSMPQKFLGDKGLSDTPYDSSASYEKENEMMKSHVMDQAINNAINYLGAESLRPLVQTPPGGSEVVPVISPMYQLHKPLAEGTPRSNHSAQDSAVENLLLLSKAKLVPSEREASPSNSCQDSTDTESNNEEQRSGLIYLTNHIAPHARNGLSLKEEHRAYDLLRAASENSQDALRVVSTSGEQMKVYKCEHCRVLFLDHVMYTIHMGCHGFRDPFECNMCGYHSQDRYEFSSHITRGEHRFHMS
# T1 sequence (Q96SW2 whole entry): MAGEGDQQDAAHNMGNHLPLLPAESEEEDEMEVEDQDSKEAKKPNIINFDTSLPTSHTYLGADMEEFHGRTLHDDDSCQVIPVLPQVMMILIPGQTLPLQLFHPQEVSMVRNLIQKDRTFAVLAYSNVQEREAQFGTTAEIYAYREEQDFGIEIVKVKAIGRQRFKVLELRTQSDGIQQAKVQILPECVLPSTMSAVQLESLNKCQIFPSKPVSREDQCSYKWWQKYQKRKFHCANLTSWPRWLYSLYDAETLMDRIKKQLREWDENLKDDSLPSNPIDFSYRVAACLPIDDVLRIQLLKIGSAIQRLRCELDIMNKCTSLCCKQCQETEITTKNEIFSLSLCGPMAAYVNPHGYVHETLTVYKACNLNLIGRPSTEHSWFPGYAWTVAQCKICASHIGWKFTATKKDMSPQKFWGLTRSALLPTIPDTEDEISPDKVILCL
# T1 sequence (Q16531 whole entry partner): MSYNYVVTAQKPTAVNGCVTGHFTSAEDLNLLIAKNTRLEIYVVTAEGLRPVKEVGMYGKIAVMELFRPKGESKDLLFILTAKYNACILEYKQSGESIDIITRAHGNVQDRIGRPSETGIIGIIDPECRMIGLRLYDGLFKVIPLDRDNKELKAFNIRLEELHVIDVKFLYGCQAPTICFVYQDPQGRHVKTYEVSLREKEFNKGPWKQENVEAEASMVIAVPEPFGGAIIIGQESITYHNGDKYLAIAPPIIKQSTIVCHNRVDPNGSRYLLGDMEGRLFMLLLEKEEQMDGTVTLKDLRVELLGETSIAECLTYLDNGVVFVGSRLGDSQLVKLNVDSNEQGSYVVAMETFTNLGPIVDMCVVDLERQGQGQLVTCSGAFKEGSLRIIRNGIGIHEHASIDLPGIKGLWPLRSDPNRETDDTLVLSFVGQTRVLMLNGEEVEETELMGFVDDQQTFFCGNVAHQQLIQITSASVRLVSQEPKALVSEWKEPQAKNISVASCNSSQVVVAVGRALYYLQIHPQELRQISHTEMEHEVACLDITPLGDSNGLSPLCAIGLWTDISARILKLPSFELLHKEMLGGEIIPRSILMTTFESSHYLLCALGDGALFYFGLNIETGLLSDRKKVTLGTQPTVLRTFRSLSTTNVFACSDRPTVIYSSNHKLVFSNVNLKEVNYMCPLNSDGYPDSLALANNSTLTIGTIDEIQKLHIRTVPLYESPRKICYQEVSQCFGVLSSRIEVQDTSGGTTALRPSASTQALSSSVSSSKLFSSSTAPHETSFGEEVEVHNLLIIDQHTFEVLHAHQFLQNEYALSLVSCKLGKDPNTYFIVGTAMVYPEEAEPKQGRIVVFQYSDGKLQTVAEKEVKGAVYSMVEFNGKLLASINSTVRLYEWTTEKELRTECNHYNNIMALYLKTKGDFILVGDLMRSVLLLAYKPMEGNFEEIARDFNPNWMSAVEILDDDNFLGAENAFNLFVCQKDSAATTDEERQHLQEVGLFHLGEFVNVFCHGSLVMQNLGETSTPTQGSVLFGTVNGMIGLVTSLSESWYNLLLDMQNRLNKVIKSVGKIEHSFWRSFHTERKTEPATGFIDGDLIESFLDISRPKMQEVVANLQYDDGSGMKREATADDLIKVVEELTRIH
Dmax (IKZF1 Ikaros [1]) [%],Dmax (IKZF1 Ikaros [2]; 100% = complete degradation) [%],DC50 (IKZF1 Ikaros [1]) [µM],"IKZF1 Ikaros Maximum Observed Degradation (IKZF1 Ikaros [2]; 24 hours, 100% = complete degradation, 1440 min) [%]","DC50 (IKZF1 Ikaros [2]; 24 hours, concentration reducing protein level by 50% vs DMSO) [µM]",SMILES
47,17,,,,"O=C1CCC(n2cc(-c3ccc(Br)cc3F)oc2=O)C(=O)N1 (stereo not shown) [Comparative Compound B, 3-(5-(4-bromo-2-fluorophenyl)-2-oxooxazol-3(2H)-yl)piperidine-2,6-dione]"
24,74,> 10,,,"O=C1CCC(n2cc(-c3ccccc3)oc2=O)C(=O)N1 (stereo not shown) [Comparative Compound A, 3-(2-oxo-5-phenyloxazol-3(2H)-yl)piperidine-2,6-dione]"
46,68 to 69,> 10,69,0.064 to 0.094,"Cc1cc(-c2ccc(-c3cn(C4CCC(=O)NC4=O)c(=O)o3)c(F)c2)nc(N)c1OC(F)F (stereo not shown) [Example 1, 3-(5-(4-(6-Amino-5-(difluoromethoxy)-4-methylpyridin-2-yl)-2-fluorophenyl)-2-oxooxazol-3(2H)-yl)piperidine-2,6-dione]"
